Data from patent publication US5506264A, “Zinc tranexamate compounds” (Zaidan Hojin Seisan Kaihatsu Kaguki Kenkyusho, priority 1992, dated 1996).
Counter-ions that a name gives are not always drawn.

How the values were obtained:
[1] = test system: Stomach injury through water-immersion constraint stress; assay: Anti-ulcer test (2): stomach injury through water-immersion constraint stress; format: in vivo, Male rats of Sprague-Dawley strain; settings: 50 mg/kg oral, immediately before stress-loading (23° C., 8 hours), 8 animals, * p<0.05; for Ulcer coefficient (mm) mean ± S.E.: non-treated 52.8 ± 9.8
Method: Male rats of Sprague-Dawley strain (supplied by Charles-River Co., SPE) weighing 220 to 280 g were fasted for 24 hours and employed in the experiment, whereby the rats were allowed free access to water for the first 22 hours, with no water being given for the remaining 2 hours. The test compound was suspended in 0.5% aqueous carboxymethylcellulose solution and the suspension was given to the test animals at a dose of 1 ml/200 g body weight, with the solvent alone being applied as a control at the same dose. The rats were stress-loaded by soaking the animals placed in a stress cage of Univ. of Tokyo type up to the xiphoid in a water tank at 23° C. and they were taken out of the tank 8 hours later and sacrificed with ether. The stomachs were isolated and treated with formalin, and individual injuries formed in the glandular portion of the stomach were measured in length (mm), with the total sum per rat of the measured injury lengths being calculated. The test compound was given to the test animals orally immediately before the stress-loading.

[2] = test system: Stomach injury with hydrochloric acid/ethanol; assay: Anti-ulcer test (1): stomach injury with hydrochloric acid/ethanol; format: in vivo, Male rats of Sprague-Dawley strain; settings: for Suppression % / Ulcer coefficient (mm) mean ± S.E.: 50 mg/kg oral, 1 hour before hydrochloric acid/ethanol, 8 animals, * p<0.05; for Ulcer coefficient (mm) mean ± S.E.: non-treated 78.4 ± 21.1
Method: Male rats of Sprague-Dawley strain (supplied by Charles-River Co., SPE) weighing 220 to 280 g were fasted for 24 hours and employed in the experiment, whereby the rats were allowed free access to water for the first 22 hours, with no water being given for the remaining 2 hours. The test compound was suspended in 0.5% aqueous carboxymethylcellulose solution and the suspension was given to the test animals at a dose of 1 ml/200 g body weight, with the solvent alone being applied as a control at the same dose. Rats were treated by oral administration of hydrochloric acid/ethanol (containing 0.15 mole hydrochloric acid solution in 80% ethanol) at a dose of 1 ml/200 g body weight and sacrificed with ether 1 hour later, and the stomachs and duodena were isolated, followed by removal of the contents from the duodena. After the cardiac orifices were ligated, 2% formalin solution was injected in 8 ml portion into the stomachs through the duodenum, and the pyloric sphincters were ligated, followed by immersion into the same solution for 10 min to perform slight fixation (hereinafter referred to as "formalin treatment"). The stomachs were incised along the greater curvature, and individual injuries (erosions) generated in the glandular portion of each stomach were measured in length (mm) under microscope for anatomy (10 fold magnification), with the total sum per rat of measured injury lengths being calculated. The test compound was given to the animals orally 1 hour before administration of hydrochloric acid/ethanol.

Solubility in water = format: physicochemical
mice = assay: Acute toxicity test, oral; settings: 3 day observation
Source text: Male ddy strain mice (weighing 23 to 26 g) used in the experiment were divided into groups each consisting of 3 heads and treated by oral administration of the test compound suspended with powdered gum arabic, followed by observation for any abnormalities over a 3 day period to find the number of dead animals.

Compound | Suppression % [1] | Ulcer coefficient (mm) mean ± S.E. [1] | Suppression % [2] | Ulcer coefficient (mm) mean ± S.E. [2] | effects in the anti-ulcer tests ([2]; conclusion in words from the test results) | amount of compound dissolving in 2 ml of water (Solubility in water) | suppressory activity in the anti-ulcer test, compared with control, tranexamic acid and cetraxate hydrochloride ([2]; summary in words of the anti-ulcer tests (Tables 1 and 2)) | Nd/No (No. of dead animals / total No. of experimental animals) (mice; 600 mg/kg oral) | Nd/No (No. of dead animals / total No. of experimental animals) (mice; 1,200 mg/kg oral) | mortality (mice; oral doses up to 1,200 mg/kg)
NC[C@H]1CC[C@H](C(=O)Oc2ccc(CCC(=O)O)cc2)CC1 [Cetraxate hydrochloride] | 39.4% | 32.0 ± 8.4 mm | 40.9% | 46.3 ± 7.6 mm | – | – | – | – | – | –
NC[C@H]1CC[C@H](C(=O)O)CC1 [Tranexamic acid, tranexamic acid] | 11.9% | 46.5 ± 8.4 mm | 10.1% | 70.5 ± 20.1 mm | did not produce any marked effects | – | – | – | – | –
L-malic acid salt of zinc tranexamate monohydrate | – | – | – | – | – | 1 g | – | – | – | –
zinc tranexamate monohydrate | 57.8% | 22.3 ± 8.4 mm | 81.1% | 14.8 ± 4.5 mm | – | – | improved suppressory activity as compared with the control, or tranexamic acid and cetraxate hydrochloride | 0/3 | 0/3 | did not cause any animal to die
